According to ChEMBL document CHEMBL1201862, “PubChem BioAssay data set” (2004):
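Interpolation was linear, between the two tested concentrations surrounding the appropriate level; five concentrations were tested over 48 hours in 96-well plates. The concentration for 50% growth inhibition is given as GI50.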 Activity calls are given as the source filed them. No stated cut-off is given here; in the data, active = GI50 up to about 1.1 µM and inactive = higher. Where a SMILES comes first, the peptide text is derived from it. The star is where a group is joined. Cbz = O=C(OCc1ccccc1)*

Columns and labels:
Test in all cases: NCI-60 cell line screen, 48 h
MOLT-4 = tested on: MOLT-4
EKVX = tested on: EKVX
NCI-H460 = tested on: NCI-H460
NCI/ADR-RES = tested on: NCI/ADR-RES
A549 = tested on: A549
SK-MEL-5 = tested on: SK-MEL-5
K562 = tested on: K562
M14 = tested on: M14
KM12 = tested on: KM12
SF-295 = tested on: SF-295
UO-31 = tested on: UO-31
COLO 205 = tested on: COLO 205
HT-29 = tested on: HT-29
SF-268 = tested on: SF-268
SK-MEL-2 = tested on: SK-MEL-2
MCF7 = tested on: MCF7
TK-10 = tested on: TK-10
SN12C = tested on: SN12C
MDA-N = tested on: MDA-N
HCC 2998 = tested on: HCC 2998

Measured: GI50

N#CCSc1c(-c2ccccc2)c(=O)n(-c2ccccc2)c(=S)n1-c1ccccc1
inactive: MOLT-4 > 100 µM | EKVX > 100 µM | NCI-H460 > 100 µM | NCI/ADR-RES > 100 µM | A549 > 100 µM | SK-MEL-5 84.5 µM | K562 > 100 µM | M14 > 100 µM | KM12 > 100 µM | SF-295 > 100 µM | UO-31 > 100 µM | COLO 205 > 100 µM | HT-29 > 100 µM | SF-268 > 100 µM | SK-MEL-2 > 100 µM | MCF7 > 100 µM | TK-10 > 100 µM | SN12C > 100 µM | MDA-N 95.3 µM

O=c1oc2cc(/N=C/c3ccc4c(c3)OCO4)ccc2c2ccccc12
inactive: MOLT-4 33.3 µM | EKVX 3.66 µM | NCI-H460 39.8 µM | NCI/ADR-RES 77.1 µM | A549 > 100 µM | SK-MEL-5 76.6 µM | K562 > 100 µM | M14 > 100 µM | KM12 > 100 µM | SF-295 58.6 µM | UO-31 70 µM | COLO 205 56.6 µM | HT-29 50.9 µM | SF-268 61 µM | SK-MEL-2 92.9 µM | MCF7 54.5 µM | TK-10 41.4 µM | SN12C 51.9 µM | MDA-N > 100 µM

Cc1ccc(/C=C2\NC(=S)N(CN3CCCCC3)C2=O)cc1
inactive: MOLT-4 93.3 µM | EKVX 46.3 µM | NCI/ADR-RES 57.7 µM | A549 51.2 µM | SK-MEL-5 33.3 µM | K562 43 µM | M14 55.1 µM | KM12 > 100 µM | SF-295 44.6 µM | UO-31 63.1 µM | COLO 205 17 µM | HT-29 24.2 µM | SF-268 64 µM | SK-MEL-2 > 100 µM | MCF7 28.4 µM | TK-10 69.3 µM | SN12C 63.7 µM | MDA-N 65.2 µM

CC(C)(C)c1cc(C(=O)C2Cc3ccccc3C(=O)O2)cc(C(C)(C)C)c1O (stereo not drawn)
inactive: MOLT-4 8.55 µM | EKVX 12.3 µM | NCI-H460 10.9 µM | NCI/ADR-RES 13 µM | A549 13.1 µM | SK-MEL-5 12.6 µM | K562 11.4 µM | M14 12.6 µM | KM12 12 µM | SF-295 14.1 µM | UO-31 11.2 µM | COLO 205 17.6 µM | HT-29 14.4 µM | SF-268 14.5 µM | SK-MEL-2 10.9 µM | MCF7 12.5 µM | TK-10 15.3 µM | SN12C 11.5 µM | MDA-N 8.61 µM

O=C1C(/C=N/CCc2c[nH]c3ccccc23)C(C(F)(F)F)=NN1c1nc2ccccc2s1 (stereo not drawn)
inactive: MOLT-4 21.1 µM | EKVX 23.1 µM | NCI-H460 24.1 µM | NCI/ADR-RES 26.7 µM | A549 18.3 µM | SK-MEL-5 18.3 µM | K562 29.2 µM | M14 30.7 µM | SF-295 24 µM | UO-31 31.3 µM | COLO 205 17.7 µM | HT-29 27.5 µM | SF-268 50.5 µM | SK-MEL-2 28.8 µM | MCF7 23 µM | TK-10 25.4 µM | SN12C 37.6 µM | MDA-N 32.8 µM

COC(=O)[C@]1(C)CCCC2(C)C3=C(CCC21)CC1(CC3)SCCS1 (stereo partly drawn)
inactive: MOLT-4 > 10 µM | EKVX > 10 µM | NCI/ADR-RES > 10 µM | A549 > 10 µM | SK-MEL-5 > 10 µM | K562 > 10 µM | M14 > 10 µM | KM12 > 10 µM | COLO 205 > 10 µM | HT-29 > 10 µM | HCC 2998 > 10 µM | SF-268 > 10 µM | MCF7 > 10 µM | TK-10 > 10 µM | SN12C > 10 µM | MDA-N > 10 µM

O=c1ccn(C2OC(CO)C(O)C2F)c(=O)n1Cc1ccccc1 (stereo not drawn)
inactive: MOLT-4 > 100 µM | EKVX > 100 µM | NCI-H460 > 10 µM | NCI/ADR-RES > 100 µM | A549 > 100 µM | SK-MEL-5 > 100 µM | K562 > 100 µM | KM12 > 100 µM | SF-295 > 100 µM | UO-31 > 100 µM | COLO 205 > 100 µM | HT-29 > 100 µM | SF-268 > 100 µM | MCF7 > 100 µM | TK-10 > 100 µM | SN12C > 100 µM | MDA-N > 100 µM

CCOC(=O)[C@@H]1OC(c2ccccc2)O[C@H]1C(=O)OCC
inactive: MOLT-4 > 100 µM | EKVX > 100 µM | NCI/ADR-RES > 100 µM | A549 > 100 µM | SK-MEL-5 > 100 µM | K562 > 100 µM | M14 > 100 µM | KM12 > 100 µM | SF-295 > 100 µM | UO-31 > 100 µM | COLO 205 > 100 µM | HT-29 > 100 µM | SF-268 > 100 µM | SK-MEL-2 > 100 µM | MCF7 > 100 µM | TK-10 > 100 µM | SN12C > 100 µM | MDA-N > 100 µM

COC(=O)[C@@H]1CN(C(C)=O)C(=O)N1
inactive: MOLT-4 > 100 µM | EKVX > 100 µM | NCI-H460 > 100 µM | NCI/ADR-RES > 100 µM | A549 > 100 µM | SK-MEL-5 > 100 µM | K562 > 100 µM | M14 > 100 µM | KM12 > 100 µM | SF-295 > 100 µM | UO-31 > 100 µM | COLO 205 > 100 µM | HT-29 > 100 µM | HCC 2998 > 100 µM | SF-268 > 100 µM | SK-MEL-2 > 100 µM | TK-10 > 100 µM | SN12C > 100 µM | MDA-N > 100 µM

CC(C)(C)c1cc(/C=C/C(=O)CC(=O)/C=C/c2cc(C(C)(C)C)c(O)c(C(C)(C)C)c2)cc(C(C)(C)C)c1O
inactive: EKVX > 50 µM | NCI-H460 > 50 µM | NCI/ADR-RES > 50 µM | A549 > 50 µM | SK-MEL-5 > 50 µM | M14 > 50 µM | KM12 28.4 µM | SF-295 > 50 µM | UO-31 > 50 µM | COLO 205 > 50 µM | HT-29 > 50 µM | SF-268 > 50 µM | SK-MEL-2 > 50 µM | MCF7 > 50 µM | TK-10 > 50 µM | SN12C > 50 µM | MDA-N > 50 µM

CCOC(=O)CCC(NC(=O)CNC(=O)CNC(=O)C(CCC(=O)OCC)NC(=O)C(CCC(=O)OCC)NC(=O)C(CCC(=O)OCC)NC(=O)OCc1ccccc1)C(=O)NC(CCC(=O)OCC)C(=O)NC(CCC(=O)OCC)C(=O)OCC (stereo not drawn) (Cbz-E(OEt)E(OEt)E(OEt)GGE(OEt)E(OEt)E(OEt)-OEt; configuration not given here)
inactive: MOLT-4 > 75 µM | EKVX > 75 µM | NCI-H460 > 75 µM | NCI/ADR-RES > 75 µM | A549 > 75 µM | SK-MEL-5 > 75 µM | M14 > 75 µM | KM12 > 75 µM | SF-295 > 75 µM | UO-31 > 75 µM | COLO 205 > 75 µM | HT-29 > 75 µM | SF-268 > 75 µM | SK-MEL-2 > 75 µM | MCF7 > 75 µM | TK-10 > 75 µM | SN12C > 75 µM | MDA-N > 75 µM
